This note sets out measurements from patent publication US6545007B2, “Methods for inhibiting the transmission of HIV using topically applied substituted 6-benzyl-4-oxopyrimidines” (Idenix (Cayman) Limited, priority 2000, dated 2003).

pEC50: −log10 of the molar value. Read-outs that look alike come from different tables or passages of the source. Where only a bound is given, the exact number is not on record here.

The subject of one data set is HIV-1. The note with it: MT-4 cells infected with very high virus load; p24 ELISA of cell-free supernatants at 4 day intervals for 4 weeks. (In an ELISA, binding on a coated surface is turned into a signal by an enzyme label.)
In another data set the test system is HIV-1 (IIIB strain). The format is cell-based. The following applies: for pEC50: anti-HIV-1 activity; for SI: selectivity index (CC50/EC50). In short, it runs like this: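 MT-4 cells (1×10^4/well) were infected with 100 CCID50 HIV-1 IIIB in presence of compound and incubated 4 days at 37 °C. Protection from virus-induced cytopathicity was scored by MTT viability, with cytotoxicity measured in parallel on mock-infected cells.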

The subject of a further data set is mock-infected MT-4 cells. Briefly: Cytotoxicity: viability of mock-infected cells by the MTT method. The format is cell-based, human. In short, it runs like this: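 Mock-infected MT-4 cells (1×10^4 per well) in RPMI 1640 with 10% FCS exposed to various compound concentrations for 4 days at 37° C, 5% CO2, in parallel with the antiviral assay. Viable cells counted by MTT method.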
(Tetrazolium assays rely on reduction of a dye to a coloured formazan, in cell work by metabolically active cells.)

In the case of `Cc1ccnc2c1NC(=O)c1cccnc1N2C1CC1` [Nevirapine, 11-cyclopropyl-5,11-dihydro-4-methyl-6H-dipyridol{3,2-b:2′,3′-e}diazepin-6-one, reference compound], in the data set with HIV-1, the “concentration able to maintain a sustained reduction of p24 in the culture supernatants” value was 300 µM.

Regarding `Cc1c(C(C)c2c(F)cccc2F)nc(N(C)C)[nH]c1=O` (centres unmarked) [MC 1220], in the data set with HIV-1, the “concentration able to maintain a sustained reduction of p24 in the culture supernatants” value is 3.5 µM.

In the case of `Cc1c(C(C)c2c(F)cccc2F)nc(SC2CCCC2)[nH]c1=O` (centres unmarked) [MC-1047, 2-Cyclopentylthio-6-{1-(2,6-difluorophenyl)ethyl}-3,4-dihydro-5-methylpyrimidin-4(3H)-one], the pEC50 – broadly, the EC50 on a negative log10 scale, so that one unit is a factor of ten – with HIV-1 (IIIB strain) (HIV-1-infected MT-4 cells) was 8.05. The SI with HIV-1 (IIIB strain) is >22,222. Besides, in the data set with HIV-1, the “concentration able to maintain a sustained reduction of p24 in the culture supernatants” value came to 10 µM. Besides, the CC50 (as a rule, the concentration at which the toxic effect on the cells reaches its halfway point) with mock-infected MT-4 cells is greater than 200 µM.

Turning to `CC(C)Sc1nc(Cc2c(F)cccc2F)c(C(C)C)c(=O)[nH]1` [MC 1039], the pEC50 in the data set on HIV-1 (IIIB strain) (HIV-1-infected MT-4 cells) was 6.40. This compound also had an SI in the data set with HIV-1 (IIIB strain) greater than 500. In the data set with mock-infected MT-4 cells, this compound showed a CC50 greater than 200 µM.

In the data set on HIV-1 (IIIB strain) (HIV-1-infected MT-4 cells), `CCCNc1nc(Cc2c(F)cccc2F)cc(=O)[nH]1` [MC 1078] gave a pEC50 of 6.96. Moreover, in the data set with HIV-1 (IIIB strain), the SI was 1,818. In the data set on mock-infected MT-4 cells, it took 200 µM to reach half-maximal cytotoxicity (CC50).

`CCc1c(Cc2c(F)cccc2F)nc(SC(C)CC)[nH]c1=O` (centres unmarked) [MC 1038] had a pEC50 in the data set with HIV-1 (IIIB strain) (HIV-1-infected MT-4 cells) of 7.00. Further, in the data set on HIV-1 (IIIB strain), the SI was >2,000. In the data set on mock-infected MT-4 cells, this compound displayed a CC50 greater than 200 µM.

In the data set with HIV-1 (IIIB strain) (HIV-1-infected MT-4 cells), `CSc1nc(C(C)c2c(F)cccc2F)c(C)c(=O)[nH]1` (centres unmarked) [MC 1060] showed a pEC50 of 7.40. Further, the SI with HIV-1 (IIIB strain) is listed as >5,000. In the data set on mock-infected MT-4 cells, the CC50 was greater than 200 µM.

In turn, `CC(C)Nc1nc(C(C)c2c(F)cccc2F)cc(=O)[nH]1` (centres unmarked) [MC 1191] had a pEC50 in the data set on HIV-1 (IIIB strain) (acutely infected MT-4 cells, MTT) of 7.52. Further, the CC50 in the data set on mock-infected MT-4 cells (MTT) came out at 115 µM.
